Experimental data published in ChEMBL document CHEMBL1135175, “Synthesis and bioactivities of novel bicyclic thiophenes and 4,5,6,7-tetrahydrothieno[2,3-c]pyridines as inhibitors of tumor necrosis factor-alpha (TNF-alpha) production” (Bioorg Med Chem Lett, 2002).

What was measured:
Rattus norvegicus [1] = experiment: Compound was evaluated for percentage recovery from paw edema in adjuvant-induced arthritic model of rat at a dose of 50 mg/kg; assay type: functional
Rattus norvegicus [2] = species on record: Rattus norvegicus; experiment: Evaluated for its ability to inhibit LPS stimulated production of TNF-alpha in rat whole blood; assay type: functional, organism-based
Rattus norvegicus [3] = experiment: Compound was evaluated for percentage recovery from femur weight in adjuvant-induced arthritic model of rat at a dose of 50 mg/kg; assay type: functional
Rattus norvegicus [4] = experiment: TNF-alpha inhibiting activity by in vivo inhibition of serum TNF production in rat at 50 mg/kg, peroral administration.; assay type: functional; conditions: route oral
Rattus norvegicus [5] = experiment: Compound was evaluated for percentage recovery from GAG in adjuvant-induced arthritic model of rat at a dose of 50 mg/kg; assay type: functional
Rattus norvegicus [6] = experiment: Compound was evaluated for percentage recovery from femur weight in adjuvant-induced arthritic model of rat at a dose of 10 mg/kg; assay type: functional, organism-based; design: dose 10 mg/kg
Rattus norvegicus [7] = experiment: Compound was evaluated for percentage recovery from paw edema in adjuvant-induced arthritic model of rat at a dose of 10 mg/kg; assay type: functional, organism-based; design: dose 10 mg/kg
Rattus norvegicus [8] = experiment: Compound was evaluated for percentage recovery from GAG in adjuvant-induced arthritic model of rat at a dose of 10 mg/kg; assay type: functional, organism-based; design: dose 10 mg/kg
Rattus norvegicus [9] = experiment: TNF-alpha inhibiting activity was assessed by In vivo inhibition of serum TNF production in rat, at 50 mg/kg, po; assay type: functional
Rattus norvegicus [10] = experiment: Compound was evaluated for percentage recovery from femur weight in adjuvant-induced arthritic model of rat at a dose of 2 mg/kg; assay type: functional
Rattus norvegicus [11] = experiment: Compound was evaluated for percentage recovery from GAG in adjuvant-induced arthritic model of rat at a dose of 2 mg/kg; assay type: functional
Rattus norvegicus [12] = experiment: Compound was evaluated for percentage recovery from paw edema in adjuvant-induced arthritic model of rat at a dose of 2 mg/kg; assay type: functional

| IC50 (Rattus norvegicus [2]) [µM] | Compound | inhibition in vivo at 50 mg/kg (Rattus norvegicus [4]) [%] | also measured |
| --- | --- | --- | --- |
| 6.2 | CCOC(=O)c1c(NC(=O)N(CC)CC)sc2c1CCN(C(C)=O)C2 | 92.3 | Paw edema (Rattus norvegicus [1]): 42.5%; Femur weight (Rattus norvegicus [3]): 110%; GAG (Rattus norvegicus [5]): 119% |
| 13 | CCOC(=O)c1c(NC(C)=O)sc2c1CCN(C(C)=O)C2 | 78.4 | – |
| 11 | CCOC(=O)c1c(NC(=O)C(C)(C)C)sc2c1CCN(C(C)=O)C2 | 63.7 | – |
| 10 | CCOC(=O)c1c(NC(=O)C(C)C)sc2c1CCN(C(=O)c1ccccc1)C2 | 31.8 | – |
| – | CCOC(=O)c1c(NC(=O)C(C)C)sc2c1CCN(C(C)=O)C2 | 49.1 | – |
| 20 | CCOC(=O)c1c(NC(=O)CC(C)C)sc2c1CCN(C(C)=O)C2 | 33.1 | – |
| 42 | CCOC(=O)c1c(NC(=O)C(C)C)sc2c1CCN(Cc1ccccc1)C2 | – | – |
| 22 | CC(=O)N1CCc2c(sc(NC(=O)C(C)C)c2C#N)C1 | 23.2 | – |
| 7.1 | CC(=O)N1CCc2c(sc(NC(=O)C(C)C)c2C(=O)OC(C)C)C1 | 42.1 | – |
| 17 | CCOC(=O)c1c(NC(=O)N2CCN(C)CC2)sc2c1CCN(C(C)=O)C2 | 40.7 | – |
| 22 | CCOC(=O)c1c(NC(=O)N2CCN(C=O)CC2)sc2c1CCN(C(C)=O)C2 | 41.9 | – |
| 10 | CCCCC(CC)COC(=O)c1c(NC(=O)C(C)C)sc2c1CCN(C(C)=O)C2 (stereo unspecified) | 10.6 | – |
| 9 | CCOC(=O)c1c(N(C)C(=O)CC)sc2c1CCN(C(C)=O)C2 | 81 | – |
| 7.9 | CCOC(=O)c1c(NC(=O)CC)sc2c1CCN(C(C)=O)C2 | 90.1 | – |
| 40 | CCCN1CCc2c(sc(NC(=O)C(C)C)c2C(=O)OCC)C1 | – | – |
| 12 | CCOC(=O)c1c(N(C)C(=O)N(CC)CC)sc2c1CCN(C(C)=O)C2 | 51.9 | – |
| 1.3 | CCCN(CC1CC1)C(=O)Nc1sc2c(c1C(=O)OCC)CCN(C(C)=O)C2 | 34.8 | – |
| 6 | CCOC(=O)c1c(NC(=O)N2CCSC2)sc2c1CCN(CC)C2 | 5.4 | – |
| 13 | CCOC(=O)c1c(NC(=O)OCCN2CCOCC2)sc2c1CCN(C(C)=O)C2 | 57.6 | – |
| 12 | CCOC(=O)c1c(NC(=O)N(CC)C2CCCCC2)sc2c1CCN(C(C)=O)C2 | 7.6 | – |
| 1 | CCOC(=O)c1c(NC(=O)N2CCOCC2)sc2c1CCN(C(C)=O)C2 | 90.3 | – |
| > 100 | CC(=O)N1CCc2c(sc(NC(=O)C(C)C)c2C(=O)O)C1 | – | – |

| IC50 (Rattus norvegicus [2]) [µM] | Compound | inhibition in vivo at 50 mg/kg (Rattus norvegicus [4]) [%] | also measured |
| --- | --- | --- | --- |
| 32 | CCOC(=O)c1c(NC(=O)C(C)C)sc2c1CCN(C)C2 | 22.7 | – |
| > 100 | CC(=O)N1CCc2c(sc(NC(=O)C(C)C)c2C(N)=O)C1 | – | – |
| – | CCOC(=O)c1c(NC(=O)C2CC2)sc2c1CCN(C(C)=O)C2 | 64.2 | – |
| 12 | CCOC(=O)c1c(NC(=O)N2CCSCC2)sc2c1CCN(C(C)=O)C2 | 20 | – |
| – | AURANOFIN | – | Femur weight (Rattus norvegicus [6]): 17%; Paw edema (Rattus norvegicus [7]): -4.7%; GAG (Rattus norvegicus [8]): 73% |
| 16 | CCOC(=O)c1c(NC(=O)N2CCNCC2)sc2c1CCN(C(C)=O)C2 | 51.4 | – |
| 13 | CCOC(=O)c1c(NC(=O)Nc2cccnc2)sc2c1CCN(C(C)=O)C2 | 48.7 | – |
| 0.9 | CCOC(=O)c1c(NC(=O)NC(Cc2ccccc2)C(=O)OC)sc2c1CCN(C(C)=O)C2 (stereo unspecified) | 8.2 | – |
| 22 | CCOC(=O)c1c(NC(=O)CC)sc2c1CCN(CC)C2 | 9.2 | – |
| 15 | CCOC(=O)c1c(NC(=O)C(C)C)sc2c1CCN(CC)C2 | 69.2 | – |
| 18 | CCCCC(=O)Nc1sc2c(c1C(=O)OCC)CCN(C(C)=O)C2 | 42.9 | – |
| 2.2 | CCOC(=O)c1c(NC(=O)N(CC)CC)sc2c1CCN(CC)C2 | – | inhibition in vivo at 50 mg/kg (Rattus norvegicus [9]): 88.7% |
| – | CCOC(=O)c1c(NC(=O)c2cccnc2)sc2c1CCN(C(C)=O)C2 | 23.5 | – |
| 20 | CCOC(=O)Nc1sc2c(c1C(=O)OCC)CCN(C(C)=O)C2 | 57.1 | – |
| 10 | CCOC(=O)c1c(NC(=O)C(C)C)sc2c1CCOC2 | 17.6 | – |
| 19 | CCNC(=O)Nc1sc2c(c1C(=O)OCC)CCN(C(C)=O)C2 | 17 | – |
| 13 | CCOC(=O)c1c(NC(=O)N2CCCCC2)sc2c1CCN(C(C)=O)C2 | 46.8 | – |
| – | COc1ccc2c(c1)c(CC(=O)O)c(C)n2C(=O)c1ccc(Cl)cc1 [INDOMETHACIN] | – | Femur weight (Rattus norvegicus [10]): 20%; GAG (Rattus norvegicus [11]): 7.4%; Paw edema (Rattus norvegicus [12]): 72.1% |
| 28 | CCOC(=O)c1c(NC(=O)C(C)C)sc2c1CCCC2 | 1.8 | – |
| 12 | CCOC(=O)c1c(NC(=O)NN2CCOCC2)sc2c1CCN(C(C)=O)C2 | 22.1 | – |
| 34 | CCOC(=O)c1c(NC(=O)C(C)C)sc2c1CCSC2 | 21.2 | – |
| 28 | CCCC(=O)Nc1sc2c(c1C(=O)OCC)CCN(C(C)=O)C2 | 33.3 | – |
